Each structure is given as a SMILES string.

The test system of series [1] is thyroid stimulating hormone (TSH). As to the method: A study was performed of this invention using forty-eight male college-aged volunteers. The participants were divided into 4 groups of 12 subjects. The groups reported to the lab after an overnight fast and were then administered the following: 200 mg of Caffeine, 250 mg of A-GPC, 500 mg of A-GPC or placebo. One hour and two hours post administration blood was drawn from a vein in the antecubital space into a serum separator tube, this was allowed to stand for 15 minutes, then centrifuged and the serum drawn off and frozen at −35 degrees Celsius for later evaluation.
At the conclusion of data collection, the serum aliquots were thawed and a commercially available high-sensitivity ELISA was uses to quantify TSH levels (Eagle Biosciences TSH Ultrasensitive ELISA kit). Samples were tested in duplicate with inter and intra place CV % of less than 10. A repeated measures Anova was used to assess TSH level by group.

The conditions of series [2]: in vivo; cited from earlier work.
In a further series the test system is dopamine receptors. To be noted: chronic administration, aging mice; cited from earlier work.

In the case of `C[N+](C)(C)CCOP(=O)([O-])OC[C@H](O)CO` [A-GPC, Alpha Glycerylphosphoryl Choline], the “TSH blood levels (effect)” value in series [1] (250 mg A-GPC, single administration) is listed as “insufficient to reduce blood TSH”. For the same compound, in series [1] (500 mg A-GPC group, 12 males), the “TSH level, group average” value amounted to 2.3 and the “number of males exhibiting TSH levels lower than 2.0” value is reported as 5 of the 12. In series [2], the “crossing the blood brain barrier” value is recorded as “capable of crossing the blood brain barrier” and the “incorporation into brain phospholipids after administration” value is “incorporated into brain phospholipids within twenty-four hours”.

As for `C[N+](C)(C)CCOP(=O)(O)OP(=O)([O-])OC[C@H]1O[C@@H](n2ccc(N)nc2=O)[C@H](O)[C@@H]1O` [CDP-choline], the “dopamine receptors in the brain” value with dopamine receptors is “increase dopamine receptors in the brain”.

The values above are taken from patent US10918651B2, “Method for lowering thyrotropin levels in adults” (University of Louisiana at Lafayette, priority 2016, dated 2021).
